Results taken from patent publication US20100267561A1, “HERBICIDAL PYRIDAZINONE DERIVATIVES” (priority 2007, published 2010).

What was measured:
Type in all cases: in vivo
[1] = tested on: umbrella sedge (Cyperus difformis); test: Test B flooded paddy test plant response
In short: (§1)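 Step one: raise plants to 2 leaves. Step two: flood pots 3 cm over the soil and apply compound into the water, keeping this depth. Step three: after 13–15 greenhouse days, score visually versus controls, 0–100, where 100 means complete control.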

rice (Oryza sativa) = test: Test B flooded paddy test plant response
In short: as §1

[2] = tested on: barnyardgrass (Echinochloa crus-galli); test: Test B flooded paddy test plant response
In short: as §1

[3] = tested on: chickweed (Stellaria media); test: Test B postemergence plant response; details: Postemergence
In short: (§2)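 Following treatment of plants 2 to 18 cm high after emergence, pots were held under glass for 13 to 15 days; efficacy was then graded visually, 100 denoting complete control and a dash no test result.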

[4] = tested on: winter barley (Hordeum vulgare); test: Test B postemergence plant response; details: Postemergence
In short: as §2

[5] = tested on: canarygrass (Phalaris minor); test: Test B postemergence plant response; details: Postemergence
In short: as §2

[6] = tested on: windgrass (Apera spica-venti); test: Test B postemergence plant response; details: Postemergence
In short: as §2

[7] = tested on: large crabgrass (Digitaria sanguinalis); test: Test A pre-/postemergence plant response
In short: (§3)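 Scores reflect visual plant injury relative to untreated controls on a 0–100 scale, recorded approximately 10 days after simultaneous preemergence soil spraying and postemergence spraying of one- to two-leaf seedlings grown in loam–sand.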

[8] = tested on: barnyardgrass (Echinochloa crus-galli); test: Test A pre-/postemergence plant response
In short: as §3

[9] = tested on: giant foxtail (Setaria faberi); test: Test A pre-/postemergence plant response
In short: as §3

[10] = tested on: velvetleaf (Abutilon theophrasti); test: Test A pre-/postemergence plant response
In short: as §3

[11] = tested on: wheat (Triticum aestivum); test: Test A pre-/postemergence plant response
In short: as §3

[12] = tested on: morningglory (Ipomoea coccinea); test: Test A pre-/postemergence plant response
In short: as §3

corn (Zea mays) = test: Test A pre-/postemergence plant response
In short: as §3

[13] = Flood (flooded paddy test), 62 g ai/ha, scale 0 to 100, 0 no effect, 100 complete control
[14] = Flood (flooded paddy test), 125 g ai/ha, scale 0 to 100, 0 no effect, 100 complete control
[15] = Flood (flooded paddy test), 250 g ai/ha, scale 0 to 100, 0 no effect, 100 complete control
[16] = Flood, 31 g ai/ha, scale 0 to 100
[17] = 31 g ai/ha, scale 0 to 100, 0 no effect, 100 complete control
[18] = Postemergence, 125 g ai/ha, 0 to 100 scale, 0 no effect, 100 complete control
[19] = Postemergence, 500 g ai/ha, 0 to 100 scale, 0 no effect, 100 complete control
[20] = Preemergence, 125 g ai/ha, 0 to 100 scale (0 no effect, 100 complete control)
[21] = Preemergence, 500 g ai/ha, 0 to 100 scale (0 no effect, 100 complete control)

Cc1cc(-c2ccc(Br)cc2)nn1-c1c(OC(=O)C2CC2)cnn(C)c1=O [Compound 5]
Plant response rating, Sedge, Umbrella [1, 13]: 70 | Plant response rating, Sedge, Umbrella [1, 14]: 80 | Plant response rating, Sedge, Umbrella [1, 15]: 80 | Plant response rating, Sedge, Umbrella [1, 16]: 70 | Plant response rating, Rice (rice (Oryza sativa); [13]): 60 | Plant response rating, Rice (rice (Oryza sativa); [14]): 75 | Plant response rating, Rice (rice (Oryza sativa); [15]): 80 | Plant response rating, Rice (rice (Oryza sativa); [16]): 15 | Plant response rating, Barnyardgrass [2, 13]: 50 | Plant response rating, Barnyardgrass [2, 14]: 70 | Plant response rating, Barnyardgrass [2, 15]: 90 | Plant response rating, Barnyardgrass [2, 16]: 20 | Plant response rating, Chickweed [3, 17]: 0 | Plant response rating, Chickweed ([3]; 62 g ai/ha, scale 0 to 100): 0 | Plant response rating, Chickweed ([3]; 125 g ai/ha, scale 0 to 100): 0 | Plant response rating, Chickweed ([3]; 250 g ai/ha, scale 0 to 100): 0 | Plant response rating, Barley [4, 17]: 30 | Plant response rating, Barley ([4]; 62 g ai/ha, scale 0 to 100): 90 | Plant response rating, Barley ([4]; 125 g ai/ha, scale 0 to 100): 95 | Plant response rating, Barley ([4]; 250 g ai/ha, scale 0 to 100): 95 | Plant response rating, Canarygrass [5, 17]: 80 | Plant response rating, Canarygrass ([5]; 62 g ai/ha, scale 0 to 100): 100 | Plant response rating, Canarygrass ([5]; 125 g ai/ha, scale 0 to 100): 100 | Plant response rating, Canarygrass ([5]; 250 g ai/ha, scale 0 to 100): 100 | Plant response rating, Windgrass [6, 17]: 95 | Plant response rating, Windgrass ([6]; 62 g ai/ha, scale 0 to 100): 100 | Plant response rating, Windgrass ([6]; 125 g ai/ha, scale 0 to 100): 100 | Plant response rating, Windgrass ([6]; 250 g ai/ha, scale 0 to 100): 100 | Plant response rating, Crabgrass, Large [7, 18]: 100 | Plant response rating, Crabgrass, Large [7, 19]: 100 | Plant response rating, Crabgrass, Large [7, 20]: 100 | Plant response rating, Crabgrass, Large [7, 21]: 100 | Plant response rating, Barnyardgrass [8, 18]: 100 | Plant response rating, Barnyardgrass [8, 19]: 100 | Plant response rating, Barnyardgrass [8, 20]: 90 | Plant response rating, Barnyardgrass [8, 21]: 100 | Plant response rating, Foxtail, Giant [9, 18]: 100 | Plant response rating, Foxtail, Giant [9, 19]: 100 | Plant response rating, Foxtail, Giant [9, 20]: 100 | Plant response rating, Foxtail, Giant [9, 21]: 100 | Plant response rating, Velvetleaf [10, 18]: 20 | Plant response rating, Velvetleaf [10, 19]: 50 | Plant response rating, Velvetleaf [10, 20]: 0 | Plant response rating, Velvetleaf [10, 21]: 20 | Plant response rating, Wheat [11, 18]: 60 | Plant response rating, Wheat [11, 19]: 70 | Plant response rating, Wheat [11, 20]: 90 | Plant response rating, Wheat [11, 21]: 100 | Plant response rating, Morningglory [12, 18]: 0 | Plant response rating, Morningglory [12, 19]: 0 | Plant response rating, Morningglory [12, 20]: 0 | Plant response rating, Morningglory [12, 21]: 0 | Plant response rating, Corn (corn (Zea mays); [18]): 100 | Plant response rating, Corn (corn (Zea mays); [19]): 100 | Plant response rating, Corn (corn (Zea mays); [20]): 80 | Plant response rating, Corn (corn (Zea mays); [21]): 90
